One series concerns Bacillus subtilis. Description: antibacterial activity (MIC) against Bacillus subtilis. It counts as cell-based.
For another series, the system named is Staphylococcus aureus. Description: antibacterial activity (MIC) against Staphylococcus aureus. The format is cell-based.
Series [1] in a line: acute toxicity (LD50), mouse, intraperitoneal. It counts as in vivo.

In brackets after ≈: the same amount, converted by molar mass.

By MIC is commonly meant the lowest concentration found to suppress growth. Regarding `COC1CC(C)C(OC)C2=CC(=O)C=C(NC(=O)C(C)=CC=CC(C)C(OC(N)=O)C(C)=CC(C)C1O)C2=O` (centres unmarked) [E-3], the MIC with Bacillus subtilis and in the series with Staphylococcus aureus was 50 to 100 µg/mL (≈ 91.8 to 184 µM) in each case.
As for `COC1CC(C)C(OC)c2cc(O)cc(c2O)NC(=O)C(C)=CC=CC(C)C(OC(N)=O)C(C)=CC(C)C1O` (centres unmarked) [E-3-R], the MIC against Bacillus subtilis and in the series with Staphylococcus aureus was 50 to 100 µg/mL (≈ 91.5 to 183 µM) in each case.
As to `COC1C2=CC(=O)C=C(NC(=O)C(C)=CC=CC(C)C(OC(N)=O)C(C)=CC(C)C(OC)C(O)CC1C)C2=O` (centres unmarked) [E-5], the MIC against Bacillus subtilis and in the series with Staphylococcus aureus was 50 to 100 µg/mL (≈ 91.8 to 184 µM) in each case.
Broadly, the LD50 is the dose expected to kill half of the subjects tested. Read a low LD50 as a more toxic substance. Consider `COC1c2cc(O)cc(c2O)NC(=O)/C(C)=C/C=C\C(C)C(OC(N)=O)/C(C)=C/C(C)C(OC)C(O)CC1C` (centres unmarked) [E-5-R], for which the MIC in the series with Bacillus subtilis and in the series on Staphylococcus aureus was 50 to 100 µg/mL (≈ 91.5 to 183 µM) throughout. In addition, the LD50 in series [1] (in vivo, ip, intraperitoneal, acute toxicity) lay in the range of 100 to 200 mg/kg. In addition, the “acute toxicity as compared with Macbecin I and II” value in series [1] (intraperitoneal, compared with Macbecin I and II) is “lower toxicity”. The “acute toxicity (in words)” value in series [1] (ip, conclusion from the LD50) was “low toxicity”.

For the origin of these results see patent publication US4421687A, “Macbecin derivatives” (priority 1981, dated 1983).
